Measurements: ChEMBL document CHEMBL1201862, “PubChem BioAssay data set” (2004)
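Values below derive from 48-hour exposures of cells grown in 96-well plates, with endpoints linearly interpolated between the two concentrations bracketing the appropriate inhibition level. GI50 = concentration required for 50% inhibition of growth.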 Activity calls are given as the source filed them. No stated cut-off is given here; in the data, active = GI50 up to about 1.1 µM and inactive = higher.

What was measured:
Assay in all cases: NCI tumour cell line growth inhibition, 48 h
[1] = tested on: Malme-3M
[2] = tested on: DMS-114
[3] = tested on: UACC-257
[4] = tested on: NCI-H23
[5] = tested on: NCI/ADR-RES
[6] = tested on: MCF7
[7] = tested on: UACC-62
[8] = tested on: NCI-H226
[9] = tested on: OVCAR-4
[10] = tested on: KM12
[11] = tested on: EKVX
[12] = tested on: CAKI-1
[13] = tested on: HOP-92
[14] = tested on: SNB-75
[15] = tested on: SK-MEL-2
[16] = tested on: IGROV-1
[17] = tested on: A549
[18] = tested on: HCC 2998
[19] = tested on: OVCAR-8
[20] = tested on: MOLT-4
[21] = tested on: NCI-H522
[22] = tested on: U-251
[23] = tested on: SF-539
[24] = tested on: A498
[25] = tested on: NCI-H460
[26] = tested on: XF498
[27] = tested on: SN12C
[28] = tested on: HOP-18
[29] = tested on: HT-29
[30] = tested on: HCT-15
[31] = tested on: COLO 205
[32] = tested on: UO-31
[33] = tested on: SK-MEL-5
[34] = tested on: SF-295
[35] = tested on: CCRF-CEM
[36] = tested on: RXF 393
[37] = tested on: LOX IMVI
[38] = tested on: HL-60
[39] = tested on: HOP-62
[40] = tested on: SK-OV-3
[41] = tested on: SNB-19
[42] = tested on: RPMI-8226
[43] = tested on: M19-MEL
[44] = tested on: K562
[45] = tested on: KM-20L2
[46] = tested on: DMS-273
[47] = tested on: OVCAR-3
[48] = tested on: SK-MEL-28
[49] = tested on: HCT-116
[50] = tested on: DLD-1
[51] = tested on: SNB-78
[52] = tested on: SW-620
[53] = tested on: SF-268
[54] = tested on: OVCAR-5
[55] = tested on: ACHN
[56] = tested on: 786-0
[57] = tested on: M14
[58] = tested on: TK-10
[59] = tested on: LXFL 529
[60] = tested on: RXF 631

O=C(O)CCC(NC(=O)c1ccc(Nc2nc3ccc(C(F)(F)F)cc3nc2-c2ccccc2)cc1)C(=O)O (configuration not stated)
GI50 [1]: > 100 µM (inactive) | GI50 [2]: > 100 µM (inactive) | GI50 [3]: > 100 µM (inactive) | GI50 [4]: > 100 µM (inactive) | GI50 [5]: > 100 µM (inactive) | GI50 [6]: > 100 µM (inactive) | GI50 [7]: > 100 µM (inactive) | GI50 [8]: > 100 µM (inactive) | GI50 [9]: > 100 µM (inactive) | GI50 [10]: > 100 µM (inactive) | GI50 [11]: > 100 µM (inactive) | GI50 [12]: > 57.8 µM (inactive) | GI50 [13]: > 46.6 µM (inactive) | GI50 [14]: > 100 µM (inactive) | GI50 [15]: > 100 µM (inactive) | GI50 [16]: > 100 µM (inactive) | GI50 [17]: > 100 µM (inactive) | GI50 [18]: > 100 µM (inactive) | GI50 [19]: > 100 µM (inactive) | GI50 [20]: > 100 µM (inactive) | GI50 [21]: > 100 µM (inactive) | GI50 [22]: > 83 µM (inactive) | GI50 [23]: > 100 µM (inactive) | GI50 [24]: > 100 µM (inactive) | GI50 [25]: > 100 µM (inactive) | GI50 [26]: 98.4 µM (inactive) | GI50 [27]: > 100 µM (inactive) | GI50 [28]: 3.37 µM (inactive) | GI50 [29]: > 100 µM (inactive) | GI50 [30]: > 100 µM | GI50 [31]: > 100 µM (inactive) | GI50 [32]: > 100 µM (inactive) | GI50 [33]: > 100 µM (inactive) | GI50 [34]: > 100 µM (inactive) | GI50 [35]: > 100 µM (inactive) | GI50 [36]: > 100 µM (inactive) | GI50 [37]: > 100 µM (inactive) | GI50 [38]: > 100 µM (inactive) | GI50 [39]: > 100 µM (inactive) | GI50 [40]: > 100 µM (inactive) | GI50 [41]: > 100 µM (inactive) | GI50 [42]: > 100 µM (inactive) | GI50 [43]: > 100 µM (inactive) | GI50 [44]: 29.6 µM (inactive) | GI50 [45]: > 100 µM (inactive) | GI50 [46]: > 100 µM (inactive) | GI50 [47]: > 100 µM (inactive) | GI50 [48]: > 100 µM (inactive) | GI50 [49]: > 100 µM (inactive) | GI50 [50]: > 100 µM (inactive) | GI50 [51]: > 100 µM (inactive) | GI50 [52]: > 100 µM (inactive) | GI50 [53]: > 100 µM (inactive) | GI50 [54]: > 100 µM (inactive)

N#Cc1c(N)oc2cc3c(C#N)c(N)oc3cc12
GI50 [55]: > 100 µM (inactive) | GI50 [1]: > 100 µM (inactive) | GI50 [2]: > 100 µM (inactive) | GI50 [3]: > 100 µM (inactive) | GI50 [4]: > 100 µM (inactive) | GI50 [56]: > 100 µM (inactive) | GI50 [7]: > 100 µM (inactive) | GI50 [57]: > 100 µM (inactive) | GI50 [9]: > 100 µM (inactive) | GI50 [10]: > 100 µM (inactive) | GI50 [11]: > 100 µM (inactive) | GI50 [12]: > 100 µM (inactive) | GI50 [13]: > 100 µM (inactive) | GI50 [14]: 83.6 µM (inactive) | GI50 [15]: > 100 µM (inactive) | GI50 [16]: > 100 µM (inactive) | GI50 [17]: > 100 µM (inactive) | GI50 [18]: > 100 µM (inactive) | GI50 [19]: > 100 µM (inactive) | GI50 [20]: > 100 µM (inactive) | GI50 [21]: > 100 µM (inactive) | GI50 [22]: > 100 µM (inactive) | GI50 [58]: > 100 µM (inactive) | GI50 [23]: > 100 µM (inactive) | GI50 [25]: > 100 µM (inactive) | GI50 [27]: > 100 µM (inactive) | GI50 [28]: > 100 µM (inactive) | GI50 [29]: > 100 µM (inactive) | GI50 [30]: > 100 µM | GI50 [31]: > 100 µM (inactive) | GI50 [32]: > 100 µM (inactive) | GI50 [33]: > 100 µM (inactive) | GI50 [34]: > 100 µM (inactive) | GI50 [35]: > 100 µM (inactive) | GI50 [36]: > 100 µM (inactive) | GI50 [37]: > 100 µM (inactive) | GI50 [38]: > 100 µM (inactive) | GI50 [59]: > 100 µM (inactive) | GI50 [39]: > 100 µM (inactive) | GI50 [40]: > 100 µM (inactive) | GI50 [41]: > 100 µM (inactive) | GI50 [42]: > 100 µM (inactive) | GI50 [43]: > 100 µM (inactive) | GI50 [44]: > 100 µM (inactive) | GI50 [60]: > 100 µM (inactive) | GI50 [45]: > 100 µM (inactive) | GI50 [46]: > 100 µM (inactive) | GI50 [47]: > 100 µM (inactive) | GI50 [48]: > 100 µM (inactive) | GI50 [50]: > 100 µM (inactive) | GI50 [52]: > 100 µM (inactive) | GI50 [53]: > 100 µM (inactive) | GI50 [54]: > 100 µM (inactive)
